Experiment [1] has as its target Chymotrypsin-like elastase family member 1 (Sus scrofa, UniProt P00772). Put plainly: Inhibition of pig pancreatic elastase preincubated for 15 mins by spectrophotometry.
The target in experiment [2] is Chymotrypsinogen A (Bos taurus, UniProt P00766). Put plainly: Inhibition of bovine pancreas alpha-chymotrypsin preincubated for 10 mins by spectrophotometry.
The target of experiment [3] is Trypsin (Sus scrofa) (UniProt P00761). Kind of experiment: Inhibition of pig pancreas trypsin at 10 uM preincubated for 10 mins by spectrophotometry.

Data on one compound can be found in ChEMBL document CHEMBL1154839, “Molassamide, a depsipeptide serine protease inhibitor from the marine cyanobacterium Dichothrix utahensis” (J Nat Prod, 2010).

The source made the active and inactive calls. The calls are words filed in the database; no cut-off is given here.

Trypsin (Sus scrofa), sequence (P00761 whole entry): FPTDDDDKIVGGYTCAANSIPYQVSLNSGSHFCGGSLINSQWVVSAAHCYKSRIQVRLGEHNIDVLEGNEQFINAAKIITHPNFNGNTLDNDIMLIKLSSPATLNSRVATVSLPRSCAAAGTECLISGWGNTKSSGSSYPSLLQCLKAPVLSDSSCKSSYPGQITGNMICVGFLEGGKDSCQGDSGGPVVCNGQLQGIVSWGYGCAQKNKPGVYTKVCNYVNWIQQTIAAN
Chymotrypsin-like elastase family member 1, sequence (P00772 whole entry): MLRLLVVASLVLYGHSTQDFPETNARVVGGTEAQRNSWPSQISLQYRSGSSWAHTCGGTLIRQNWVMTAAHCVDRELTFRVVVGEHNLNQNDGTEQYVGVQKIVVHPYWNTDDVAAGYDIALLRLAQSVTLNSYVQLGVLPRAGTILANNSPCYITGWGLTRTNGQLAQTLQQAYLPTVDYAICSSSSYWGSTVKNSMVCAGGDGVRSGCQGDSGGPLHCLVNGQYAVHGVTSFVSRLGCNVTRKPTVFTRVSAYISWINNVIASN

A word on the IC50: it is the concentration at which inhibition is half-maximal. A low value points to higher potency. Take `C/C=C1\NC(=O)[C@@H](NC(=O)[C@@H](NC(=O)[C@H](C)NC(=O)CCC)[C@@H](C)O)[C@@H](C)OC(=O)[C@H](C(C)C)NC(=O)[C@H](Cc2ccc(O)cc2)N(C)C(=O)[C@H](Cc2ccccc2)N2C(=O)[C@H](CC[C@H]2O)NC1=O` [MOLASSAMIDE]: the values for the concentration for half-maximal inhibition (IC50) in experiment [1] and in experiment [2] were 32 nM and 234 nM, respectively. Besides, the inhibition result in experiment [3] is “inactive”.
